Reference: US20070082945A1, “Discodermolide compositions” (priority 2003, published 2007)
In brackets after ≈: the same amount, converted by molar mass.

How the values were obtained:
Format in all cases: physicochemical
[1] = Storage stability of infusion concentrate vials and infusion solution
Protocol: An infusion concentrate comprising 2 mg of discodermolide is dissolved in 98-100% propylene glycol (PG) (1.0 mL) and charged to 6 mL vials. The vials are used for storage and shipment. The vials are stable for a period of at least 2 years at a temperature of 2-8° C. The vehicle is prepared in a separate 2 mL single dose vial. Each mL of solution contains 7.3 mg of sodium chloride USP, and 163 mg of ethanol (EtOH) in water for injection(saline) (16.3% ethanol in 0.9% sodium chloride solution, 2 mL fill). The storage condition is 25° C. for the vehicle. Prior to i.v. administration, 1.6 mL of the vehicle is withdrawn with a sterile disposable syringe and injected into the vial containing the discodermolide. The solution is gently shaken until a clear homogeneous solution for infusion is obtained containing 0.77 mg/mL discodermolide in 40% propylene glycol, 10% ethanol and 50% normal saline. The ratio of discodermolide concentrate to the diluent vehicle in the diluted solution is 1:1.6 v/v. The i.v. solution thus formed is stable for a period of 8 hours at room temperature.

[2] = Stability of solution diluted 1:1.6 with 16.3% w/v ethanol in 0.9% sodium chloride, ambient conditions; conditions: 0.77 mg/mL solution for infusion
Protocol: In this example, stability of discodermolide in solution diluted 1:1.6 with 16.3% w/v, ethanol in 0.9% sodium chloride solution (0.77 mg/mL) under ambient conditions is measured. Table 5 describes the amount of degradation product formed over a period of up to 24 hours. The stability is analyzed by determining formation of degradation products in each of the infusion solution as a function of time and temperature. Each sample is analyzed y HPLC with a UV detector. The solution for infusion was prepared by diluting a 2.0 mg/ml discodermolide concentrate with 16.3% ethanol in 0.9% sodium chloride solution in a 1:1.6 ration.

[3] = Solubility and stability in aqueous media
[4] = Solubility of discodermolide in various solvent systems measured by HPLC
Protocol: The solubility of discodermolide in various solvent systems is measured by HPLC and the results shown below: […]

[5] = Stability of propylene glycol infusion concentrates (HPLC, UV detector), Example 12
Protocol: The stability of propylene glycol infusion concentrates comprising discodermolide at different concentrations and various temperatures is determined. The stability is analyzed by determining formation of degradation products in each of the infusion concentrates as a function of time and temperature. Each sample is analyzed by HPLC with a UV detector. […] Under accelerated conditions, the levels of impurities increased at both 25° C./60% relative humidity (RH) and 45° C./60% RH.

[6] = normal saline (0.9% sodium chloride)
[7] = 0.6 mg/mL infusion concentrate in PG, 0-time
[8] = 0.6 mg/mL infusion concentrate in PG, 5° C., 0.5 month
[9] = 0.6 mg/mL infusion concentrate in PG, 5° C., 1 month
[10] = 0.6 mg/mL infusion concentrate in PG, 5° C., 2 months
[11] = 0.6 mg/mL infusion concentrate in PG, 5° C., 3 months
[12] = 0.6 mg/mL infusion concentrate in PG, 25° C./60% RH, 0.5 month
[13] = 0.6 mg/mL infusion concentrate in PG, 25° C./60% RH, 1 month
[14] = 0.6 mg/mL infusion concentrate in PG, 25° C./60% RH, 2 months
[15] = 0.6 mg/mL infusion concentrate in PG, 25° C./60% RH, 3 months
[16] = 0.6 mg/mL infusion concentrate in PG, 45° C./60% RH, 0.5 month
[17] = 0.6 mg/mL infusion concentrate in PG, 45° C./60% RH, 1 month
[18] = 2.0 mg/mL infusion concentrate in PG, 0-time
[19] = 2.0 mg/mL infusion concentrate in PG, 5° C., 0.5 month
[20] = 2.0 mg/mL infusion concentrate in PG, 5° C., 1 month
[21] = 2.0 mg/mL infusion concentrate in PG, 5° C., 2 months
[22] = 2.0 mg/mL infusion concentrate in PG, 5° C., 3 months
[23] = 2.0 mg/mL infusion concentrate in PG, 25° C./60% RH, 0.5 month
[24] = 2.0 mg/mL infusion concentrate in PG, 25° C./60% RH, 1 month
[25] = 2.0 mg/mL infusion concentrate in PG, 25° C./60% RH, 2 months
[26] = 2.0 mg/mL infusion concentrate in PG, 25° C./60% RH, 3 months
[27] = 2.0 mg/mL infusion concentrate in PG, 45° C./60% RH, 0.5 month
[28] = 2.0 mg/mL infusion concentrate in PG, 45° C./60% RH, 1 month
[29] = 3.0 mg/mL infusion concentrate in PG, 0-time
[30] = 3.0 mg/mL infusion concentrate in PG, 5° C., 0.5 month
[31] = 3.0 mg/mL infusion concentrate in PG, 5° C., 1 month
[32] = 3.0 mg/mL infusion concentrate in PG, 5° C., 2 months
[33] = 3.0 mg/mL infusion concentrate in PG, 5° C., 3 months
[34] = 3.0 mg/mL infusion concentrate in PG, 25° C./60% RH, 0.5 month
[35] = 3.0 mg/mL infusion concentrate in PG, 25° C./60% RH, 1 month
[36] = 3.0 mg/mL infusion concentrate in PG, 25° C./60% RH, 2 months
[37] = 3.0 mg/mL infusion concentrate in PG, 25° C./60% RH, 3 months
[38] = 3.0 mg/mL infusion concentrate in PG, 45° C./60% RH, 0.5 month
[39] = 3.0 mg/mL infusion concentrate in PG, 45° C./60% RH, 1 month

SMILES: C=C/C=C\C(C)[C@H](OC(N)=O)[C@@H](C)[C@H](O)[C@@H](C)C/C(C)=C\C(C)C(O)[C@@H](C)/C=C\[C@@H](O)C[C@@H]1OC(=O)[C@H](C)C(O)C1C (single isomer, unassigned; (+)) [discodermolide, (+)-Discodermolide]
- Period of stability of i.v. solution ([1]; 0.77 mg/mL in 40% propylene glycol, 10% ethanol, 50% normal saline, room temperature): 8 h
- Period of stability of infusion concentrate vials ([1]; 2 mg discodermolide in 1.0 mL 98-100% propylene glycol, 2-8° C.): at least 2 years
- Total Impurities ([2]; 0 hours): 0.20 % area
- Total Impurities ([2]; 2 hours): 0.23 % area
- Total Impurities ([2]; 4 hours): 0.34 % area
- Total Impurities ([2]; 8 hours): 0.47 % area
- Total Impurities ([2]; 24 hours): 0.80 % area
- Solubility in aqueous solvents and aqueous-organic mixtures [3]: poor solubility
- Stability in aqueous solvents and aqueous-organic mixtures [3]: poor stability
- Degradation on dilution of infusion concentrate [3, 6]: degrades to the hydrolysis product
- Precipitation on dilution of infusion concentrate [3, 6]: precipitation of the discodermolide is observed
- Solubility in water ([3]; water): practically insoluble
- solubility ([4]; 20% PEG 300/80% normal saline, aqueous with cosolvent or surfactant or cyclodextrin): 20 µg/mL (≈ 33.7 µM)
- solubility ([4]; 20% propylene glycol/80% normal saline, aqueous with cosolvent or surfactant or cyclodextrin, 20% PG/80% normal saline): 130 µg/mL (≈ 219 µM)
- solubility ([4]; 30% ethanol/70% normal saline, aqueous with cosolvent or surfactant or cyclodextrin): 200 µg/mL (≈ 337 µM)
- solubility ([4]; 60% PEG 300/40% normal saline, aqueous with cosolvent or surfactant or cyclodextrin): 400 µg/mL (≈ 674 µM)
- solubility ([4]; 60% ethanol/40% normal saline, aqueous with cosolvent or surfactant or cyclodextrin): 2300 µg/mL (≈ 3870 µM)
- solubility ([4]; 60% propylene glycol/40% normal saline, aqueous with cosolvent or surfactant or cyclodextrin, 60% PG/40% normal saline): 530 µg/mL (≈ 893 µM)
- solubility ([4]; 100% PEG 300, organic solvent or mixture): > 20000 µg/mL
- solubility ([4]; 100% ethanol, organic solvent or mixture): > 20000 µg/mL
- solubility ([4]; 100% propylene glycol, organic solvent or mixture, 100% PG): > 20000 µg/mL
- Assay [5, 7]: 100.4 % label claim
- Total Impurities [5, 7]: 0.18%
- Assay [5, 8]: 103.2 % label claim
- Total Impurities [5, 8]: 0.16%
- Assay [5, 9]: 102.6 % label claim
- Total Impurities [5, 9]: 0.19%
- Assay [5, 10]: 103.3 % label claim
- Total Impurities [5, 10]: 0.27%
- Assay [5, 11]: 103.8 % label claim
- Total Impurities [5, 11]: 0.29%
- Assay [5, 12]: 102.8 % label claim
- Total Impurities [5, 12]: 0.65%
- Assay [5, 13]: 101.9 % label claim
- Total Impurities [5, 13]: 1.08%
- Assay [5, 14]: 102.5 % label claim
- Total Impurities [5, 14]: 1.18%
- Assay [5, 15]: 102.4 % label claim
- Total Impurities [5, 15]: 1.43%
- Assay [5, 16]: 102.0 % label claim
- Total Impurities [5, 16]: 1.49%
- Assay [5, 17]: 101.6 % label claim
- Total Impurities [5, 17]: 1.91%
- Assay [5, 18]: 99.9 % label claim
- Total Impurities [5, 18]: 0.19%
- Assay [5, 19]: 103.2 % label claim
- Total Impurities [5, 19]: 0.16%
- Assay [5, 20]: 100.5 % label claim
- Total Impurities [5, 20]: 0.18%
- Assay [5, 21]: 102.5 % label claim
- Total Impurities [5, 21]: 0.18%
- Assay [5, 22]: 101.0 % label claim
- Total Impurities [5, 22]: 0.54%
- Assay [5, 23]: 101.1 % label claim
- Total Impurities [5, 23]: 0.55%
- Assay [5, 24]: 99.6 % label claim
- Total Impurities [5, 24]: 0.78%
- Assay [5, 25]: 101.4 % label claim
- Total Impurities [5, 25]: 1.18%
- Assay [5, 26]: 100.9 % label claim
- Total Impurities [5, 26]: 1.48%
- Assay [5, 27]: 100.3 % label claim
- Total Impurities [5, 27]: 1.17%
- Assay [5, 28]: 100.0 % label claim
- Total Impurities [5, 28]: 1.69%
- Assay [5, 29]: 102.7 % label claim
- Total Impurities [5, 29]: 0.19%
- Assay [5, 30]: 101.5 % label claim
- Total Impurities [5, 30]: 0.16%
- Assay [5, 31]: 102.0 % label claim
- Total Impurities [5, 31]: 0.19%
- Assay [5, 32]: 104.1 % label claim
- Total Impurities [5, 32]: 0.17%
- Assay [5, 33]: 104.4 % label claim
- Total Impurities [5, 33]: 0.29%
- Assay [5, 34]: 102.4 % label claim
- Total Impurities [5, 34]: 0.35%
- Assay [5, 35]: 101.3 % label claim
- Total Impurities [5, 35]: 0.52%
- Assay [5, 36]: 103.1 % label claim
- Total Impurities [5, 36]: 0.69%
- Assay [5, 37]: 102.1 % label claim
- Total Impurities [5, 37]: 0.69%
- Assay [5, 38]: 100.9 % label claim
- Total Impurities [5, 38]: 0.58%
- Assay [5, 39]: 101.5 % label claim
- Total Impurities [5, 39]: 0.70%
- Levels of impurities under accelerated conditions ([5]; 25° C./60% RH and 45° C./60% RH): increased
- Change in discodermolide content ([5]; PG infusion concentrates, after 3 months at 5° C.): No significant changes
- Total impurity amounts ([5]; PG infusion concentrates, after 3 months at 5° C., versus proposed specification limit): < 2.0%
